In EP4741383A1, “COMPOUND AND USE THEREOF AS ANTI-CANCER DRUG” (Tyligand Bioscience (Shanghai) Limited, priority 2023, dated 2025):
pIC50: −log10 of the molar value.

Key:
Assay type in all cases: biochemical
PTP1B = target: T1, PTP1B (Homo sapiens, UniProt P18031); test: Tyrosine phosphatase selectivity (pNPP substrate), PTP1B; conditions: for pIC50: PTP1B, pNPP substrate; for IC50PTP/IC50SHP2 PTP1B: selectivity ratio PTP1B over SHP2
T1 construct: made in house; host or cells: E. coli
T1 sequence (P18031 1-435): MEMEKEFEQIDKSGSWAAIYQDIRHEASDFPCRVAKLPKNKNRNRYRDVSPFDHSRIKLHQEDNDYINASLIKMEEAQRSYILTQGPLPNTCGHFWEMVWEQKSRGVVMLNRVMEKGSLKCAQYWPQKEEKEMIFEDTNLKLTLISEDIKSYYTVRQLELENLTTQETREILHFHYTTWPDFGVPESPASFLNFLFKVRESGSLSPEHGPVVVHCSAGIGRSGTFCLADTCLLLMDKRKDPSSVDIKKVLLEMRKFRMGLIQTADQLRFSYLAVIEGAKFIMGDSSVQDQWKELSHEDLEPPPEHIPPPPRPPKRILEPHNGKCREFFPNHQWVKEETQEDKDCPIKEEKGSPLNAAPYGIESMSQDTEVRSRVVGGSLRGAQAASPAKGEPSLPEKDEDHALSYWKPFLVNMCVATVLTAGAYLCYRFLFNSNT
Procedure: (§1) This experiment evaluated the selectivity of the disclosed compounds against tyrosine phosphatases, including SHP1, HePTP, Laforin, LMWPTP, LYP, PTP1B, PRL2, SSU72, VHR, FAP1, STEP, CDC14A, CD45, MEG2, and PP5, all expressed and purified from E. coli.
(§2) Phosphatase activity was measured using p-nitrophenyl phosphate (pNPP) (Fisher Scientific) as the substrate in 50 mM 3,3-dimethylglutaric acid buffer (pH 7.0, containing 1 mM EDTA), with ionic strength adjusted to 0.15 M with NaCl. […] After 10-60 minutes, the reaction was quenched by adding 20 µL of 5 N NaOH. Wells without enzyme were used as controls for correction. The amount of the product, p-nitrophenol, was determined by measuring the absorbance at 405 nm using a Spectra MAX340 microplate spectrophotometer (Molecular Devices), with a molar extinction coefficient of 18000 M^-1cm^-1.
(§3) Data were analyzed using GraphPad Prism software. Dose-response curves were obtained by fitting data using the nonlinear S-curve regression Dose-response-inhibition equation, and IC50 values were calculated.

PRL2 = target: T2, PRL2 (Homo sapiens, UniProt Q12974); test: Tyrosine phosphatase selectivity (pNPP substrate), PRL2; conditions: for pIC50: PRL2, pNPP substrate; for IC50PTP/IC50SHP2 PRL2: selectivity ratio PRL2 over SHP2
T2 construct: made in house; host or cells: E. coli
T2 sequence (Q12974 1-167): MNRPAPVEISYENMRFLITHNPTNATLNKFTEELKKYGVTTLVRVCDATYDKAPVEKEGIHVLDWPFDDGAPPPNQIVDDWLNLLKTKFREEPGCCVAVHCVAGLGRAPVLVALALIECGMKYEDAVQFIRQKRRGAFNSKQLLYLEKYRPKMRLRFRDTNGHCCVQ
Procedure: as §1, §2, §3

VHR = target: T3, VHR (Homo sapiens, UniProt P51452); test: Tyrosine phosphatase selectivity (pNPP substrate), VHR; conditions: for pIC50: VHR, pNPP substrate; for IC50PTP/IC50SHP2 VHR: selectivity ratio VHR over SHP2
T3 construct: made in house; host or cells: E. coli
T3 sequence (P51452 whole entry, species assumed): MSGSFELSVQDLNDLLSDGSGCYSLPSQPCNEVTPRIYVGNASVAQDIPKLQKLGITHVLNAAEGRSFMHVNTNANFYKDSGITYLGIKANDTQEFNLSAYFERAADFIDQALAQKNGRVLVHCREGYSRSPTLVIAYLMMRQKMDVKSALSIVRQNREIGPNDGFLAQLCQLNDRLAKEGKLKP
Procedure: as §1, §2, §3

FAP1 [1] = target: T4, FAP1 (Homo sapiens, UniProt Q12923); test: Tyrosine phosphatase selectivity (pNPP substrate), FAP1; conditions: FAP1, pNPP substrate
T4 sequence (Q12923 2163-2477): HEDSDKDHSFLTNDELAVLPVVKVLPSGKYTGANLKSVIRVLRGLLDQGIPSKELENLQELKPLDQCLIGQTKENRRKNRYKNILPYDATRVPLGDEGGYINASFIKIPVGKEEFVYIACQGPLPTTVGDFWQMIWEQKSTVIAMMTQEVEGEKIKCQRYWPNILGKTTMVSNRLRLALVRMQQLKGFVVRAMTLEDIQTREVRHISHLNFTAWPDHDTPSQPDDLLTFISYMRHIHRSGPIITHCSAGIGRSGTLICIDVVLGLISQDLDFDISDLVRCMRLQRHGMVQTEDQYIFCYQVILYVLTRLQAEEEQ
Procedure: as §1, §2, §3

FAP1 [2] = test: as above; conditions: selectivity ratio FAP1 over SHP2
Procedure: as §1, §2, §3

CD45 = target: T5, CD45 (Homo sapiens, UniProt P08575); test: Tyrosine phosphatase selectivity (pNPP substrate), CD45; conditions: for pIC50: CD45, pNPP substrate; for IC50PTP/IC50SHP2 CD45: selectivity ratio CD45 over SHP2
T5 construct: made in house; host or cells: E. coli
T5 sequence (P08575 26-1306): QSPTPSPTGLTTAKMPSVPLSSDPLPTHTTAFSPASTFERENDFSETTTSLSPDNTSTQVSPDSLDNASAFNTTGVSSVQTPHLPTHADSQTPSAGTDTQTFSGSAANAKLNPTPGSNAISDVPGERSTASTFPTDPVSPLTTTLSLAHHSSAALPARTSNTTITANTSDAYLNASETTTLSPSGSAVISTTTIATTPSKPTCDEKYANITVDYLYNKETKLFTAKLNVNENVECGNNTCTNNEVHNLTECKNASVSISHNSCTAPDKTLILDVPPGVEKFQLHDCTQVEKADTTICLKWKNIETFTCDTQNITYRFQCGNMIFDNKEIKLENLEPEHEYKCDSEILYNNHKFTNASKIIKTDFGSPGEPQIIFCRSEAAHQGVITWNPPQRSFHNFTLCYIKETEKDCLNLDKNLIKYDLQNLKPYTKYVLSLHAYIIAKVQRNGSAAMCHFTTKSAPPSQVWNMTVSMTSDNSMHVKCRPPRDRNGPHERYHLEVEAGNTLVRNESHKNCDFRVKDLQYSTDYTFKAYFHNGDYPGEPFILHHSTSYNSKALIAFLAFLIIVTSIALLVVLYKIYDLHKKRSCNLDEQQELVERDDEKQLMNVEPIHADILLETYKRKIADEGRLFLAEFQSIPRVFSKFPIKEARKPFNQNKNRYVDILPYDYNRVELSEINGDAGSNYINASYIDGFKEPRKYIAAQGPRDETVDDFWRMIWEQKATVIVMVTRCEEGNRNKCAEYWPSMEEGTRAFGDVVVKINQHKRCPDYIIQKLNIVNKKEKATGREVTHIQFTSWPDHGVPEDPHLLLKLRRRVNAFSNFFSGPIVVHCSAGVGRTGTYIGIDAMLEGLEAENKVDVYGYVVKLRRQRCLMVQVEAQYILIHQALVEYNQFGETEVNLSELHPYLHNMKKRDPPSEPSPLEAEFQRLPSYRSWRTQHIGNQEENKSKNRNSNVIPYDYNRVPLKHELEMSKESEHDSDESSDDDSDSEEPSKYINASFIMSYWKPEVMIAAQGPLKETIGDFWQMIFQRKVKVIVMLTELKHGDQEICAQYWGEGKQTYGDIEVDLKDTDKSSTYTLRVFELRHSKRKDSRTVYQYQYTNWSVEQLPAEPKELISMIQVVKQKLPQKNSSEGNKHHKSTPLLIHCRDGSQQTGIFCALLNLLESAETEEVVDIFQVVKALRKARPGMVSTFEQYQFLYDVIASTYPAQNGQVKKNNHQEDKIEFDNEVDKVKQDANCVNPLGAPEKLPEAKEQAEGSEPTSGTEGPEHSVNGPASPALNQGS
Procedure: as §1, §2, §3

Compound	pIC50 (PTP1B)	IC50PTP/IC50SHP2 PTP1B (PTP1B)	pIC50 (PRL2)	IC50PTP/IC50SHP2 PRL2 (PRL2)	pIC50 (VHR)	IC50PTP/IC50SHP2 VHR (VHR)	pIC50 (FAP1 [1])	IC50PTP/IC50SHP2 FAP1 (FAP1 [2])	pIC50 (CD45)	IC50PTP/IC50SHP2 CD45 (CD45)
O=C(Nc1ccc(-c2ccsc2)cc1)C(=O)Nc1ccc(-c2cc3cc(F)c(-c4nnn[nH]4)cc3n2C2CCC2)cc1 [Example 4]	5.49	110.3	< 4.30	1724.1	5.35	155.2	4.71	672.4	< 4.30	1724.1
Cn1c(-c2cccc(NC(=O)C(=O)Nc3ccc(-c4ccsc4)cc3)c2)c(I)c2cc(C(=O)O)c(O)cc21 [Example 11a-1, reference compound]	5.64	21.2			5.49	29.6				
O=C(Nc1ccc(-c2cc3cc(F)c(-c4nnn[nH]4)cc3n2C2CCC2)cc1)C(=O)Nc1ccc(N2CCOCC2)cc1 [Example 47]	6.43	5.8	< 4.00	1587	5.94	18.2	5.82	24.2	5.97	16.8
O=C(Nc1ccc(-c2cc3cc(F)c(-c4nnn[nH]4)cc3n2C2CCC2)cc1)C(=O)Nc1ccc(N2CCC3(CCOC3)CC2)cc1 [Example 67]	6.41	11.4	< 4.00	2941	5.35	130	5.63	68.8	5.58	77.0
CC1(n2c(-c3ccc(NC(=O)C(=O)Nc4ccc(N5CCC6(CCOC6)CC5)cc4)cc3)cc3cc(F)c(-c4nnn[nH]4)cc32)CCC1 [Example 68]	5.82	31.3	< 4.60	520.8	< 4.60	520.8	6.25	11.7	5.46	72.5
O=C(Nc1ccc(-c2cc3cc(F)c(-c4nnn[nH]4)cc3n2C2CCC2)cc1)C(=O)Nc1ccc(N2CC3COCC3C2)cc1 (stereo not shown) [Example 114]	6.33	6.5	< 4.00	1388	5.67	29.7	5.72	26.3	5.74	25.1
Cn1cc(-c2ccc(NC(=O)C(=O)Nc3ccc(-c4cc5cc(F)c(-c6noc(=O)[nH]6)cc5n4C4CCC4)cc3)cc2)cn1 [Example 123]	5.92	8.5	< 4.00	709.2	5.61	17.3	5.14	51.8	5.37	30.3
O=C(Nc1ccc(-c2oc3cc(F)c(-c4nnn[nH]4)cc3c2C2CCC2)cc1)C(=O)Nc1ccc(N2CCC3(CCOC3)CC2)cc1 [Example 125]	5.20	123.1	< 4.00	1960.8	4.05	1729.4	5.13	145.9	4.79	315.7
O=C(Nc1ccc(-c2ccsc2)cc1)C(=O)Nc1ccc(-c2cc3ccc(-c4nnn[nH]4)nc3n2C2CCC2)cc1 [Example 129]	5.07	144.1	< 4.30	847.5	> 5.52	50.8	5.38	71.2	4.38	703.4

The remaining lines, values ahead:

pIC50 (PTP1B)	IC50PTP/IC50SHP2 PTP1B (PTP1B)	pIC50 (PRL2)	IC50PTP/IC50SHP2 PRL2 (PRL2)	pIC50 (VHR)	IC50PTP/IC50SHP2 VHR (VHR)	pIC50 (FAP1 [1])	IC50PTP/IC50SHP2 FAP1 (FAP1 [2])	pIC50 (CD45)	IC50PTP/IC50SHP2 CD45 (CD45)	Compound
< 4.00	139.7	< 4.00	139.7	< 4.00	139.7	< 4.00	139.7	< 4.00	139.7	Cn1cc(-c2ccc(NC(=O)C(=O)Nc3ccc(-c4cc5cc(F)c(-c6nnc(C(F)(F)F)[nH]6)cc5n4C4CCC4)cc3)cc2)cn1 [Example 124]
4.94	464	< 4.30	2000	> 5.52	120	> 5.52	120	< 4.30	2000	O=C(Nc1ccc(-c2ccsc2)cc1)C(=O)Nc1ccc(-c2oc3cc(F)c(-c4nnn[nH]4)cc3c2C2CCC2)cc1 [Example 130]
5.33	180.8	< 4.30	1923.1	5.00	380.8	4.96	423.1	4.60	969.2	O=C(Nc1ccc(-c2ccsc2)cc1)C(=O)Nc1ccc(-c2cc3cnc(-c4nnn[nH]4)nc3n2C2CCC2)cc1 [Example 131]
5.57	100	< 4.30	1851.9	4.99	381.5	4.87	500	4.63	877.8	O=C(Nc1ccc(-c2ccsc2)cc1)C(=O)Nc1ccc(-c2cc3cc(F)c(-c4nnn[nH]4)nc3n2C2CCC2)cc1 [Example 132]
